Values quoted from earlier work as cited in US20200009266A1, “IN VIVO GENE THERAPY FOR IMMUNE DEFICIENCIES” (priority 2017, published 2020).

Legend:
[1] = system: peripheral blood lymphocytes; details: rhesus macaques
[2] = system: circulating CD34+ cells; details: AMD3100 alone, adult dogs

## c1cc(CN2CCCNCCNCCCNCC2)ccc1CN1CCCNCCNCCCNCC1 [AMD3100]
[1]
  lymphocyte numbers in peripheral blood: increased numbers of B and T lymphocytes
[2]
  time of peak mobilization post treatment: 8 to 10 h
  tolerability of treatment: well tolerated
